Results: patent US9958450B2, “L-glucose derivatives having fluorescent chromophore” (HIROSAKI UNIVERSITY, priority 2008, dated 2018)

Tests used:
[1] = test system: acutely isolated substantia nigra pars reticulata neurons; test: Application of 2-NBDG or 2-NBDLG to acutely isolated neurons (normal fluorescence microscope); format: cell-based, mouse; conditions: 200 μM solution administered for 1 minute, 36 to 37° C., fluorescence images at 10 and 30 minutes after initiation of washing
Protocol: C57BL/6J mice at the age of 13 to 15 days after birth (juvenile period) or at the age of 33 to 45 days after birth (maturation period) were deeply anesthetized with urethane (i.p. 1.6 g/kg) and decapitated according to a common procedure. Thereafter, the brain was taken out from each mouse and cooled by immersion in a cold Ringer's solution^note 1) (at 0° C.) for 1 to 2 minutes, and then, coronal brain slices with a thickness of 400 μm were prepared using a microslicer (ZERO 1, Dosaka EM Co., Ltd.). […]
In a homemade perfusion chamber (Non-patent document 2) mounted on a heating-type xy stage (Zeiss Tempcontrol 37-2) of an inverted fluorescence microscope from Zeiss Axiovert 135 (100 W, a xenon light source), a 35-mm glass bottom culture dish^note 4) was placed, and a glass coverslip (neurons were placed thereon according to the method described in (A)) placed in the dish was perfused with a HEPES solution for recording at a rate of 1.3 mL/min. […]
In the fluorescence detection, a 450-490 nm standard bandpass excitation filter manufactured by Zeiss, Inc., a 510 nm dichroic mirror, and a 515-565 nm emission filter were used without using an ND filter, and as the objective lens, a Zeiss Plan Neofluar ×20 lens (NA 0.50) was used. […]

acutely isolated neurons = test: Application of mixed solution of 2-NBDG and 2-TRLG to acutely isolated neurons (real-time laser scanning confocal fluorescence microscope); format: cell-based, mouse; conditions: mixed solution of 20 μM 2-TRLG and 100 μM 2-NBDG administered for 1 minute, 24° C., image at 1 minute after stopping the administration
Protocol: The preparation of acutely isolated neurons was performed in the same manner as in Example 1.
Then, 10 μL of this 2 mM solution was dissolved in 1 mL of a glucose-free HEPES buffer solution^note 6) containing 100 μM 2-NBDG so as to dilute the 2 mM solution to 100-fold, whereby a mixed solution of 20 μM 2-TRLG and 100 μM 2-NBDG was obtained.
3 mL of a HEPES solution^note 2) was added to a 35-mm glass bottom culture dish^note 4) having a glass bottom to which neurons were adhered, and further 3 mL of mineral oil (M8410, Sigma CO., Ltd.) was laminated thereon. […]
A total of three detectors (channels): a photomultiplier detector for light in a green wavelength range (PMT1) and a photomultiplier detector for light in a red wavelength range (PMT2), and also a detector for transmitted light (PMTTrans) were used simultaneously, and 512×512 pixel images were captured. The detection sensitivity was set as follows: PMT1: 868 V, PMT2: 868 V, and PMTtrans: 245 V. Incidentally, the optimal values of the detection wavelength ranges of green fluorescence (500-580 nm) and red fluorescence (580-740 nm) were selected not on the basis of an emission filter system, but on the basis of a system using a prism spectroscope and a slit in combination (standard of TCS SP5, Leica, Inc.). […]

Escherichia coli K12 = test: Incorporation of 2-NBDG or 2-NBDLG into Escherichia coli (evaluation for the state of Escherichia coli); format: cell-based; conditions: for difference in fluorescence detection between 2-NBDG and 2-NBDLG: dead cells prepared by treating live cells with 70% ethanol at room temperature for 10 minutes; for fluorescence due to the incorporation into the cells: live cells, 50 μM, 37° C. for 10 minutes
Protocol: Escherichia coli K12 was cultured with shaking overnight at 37° C. A 1 mL portion of the culture was centrifuged to collect cells, and the cells were suspended in 1 mL of phosphate buffered saline (PBS, a mixed solution of 0.01 M phosphate buffer and 0.137 M NaCl at pH 7.4). A 90 μL portion of the suspension was taken out, and 10 μL of the 2-NBDG solution or the 2-NBDLG solution was added thereto to give a final concentration of 50 μM, and then, an incorporation reaction was allowed to proceed at 37° C. for 10 minutes. After the reaction, the cells were collected by centrifugation and resuspended in PBS, and the cells were microscopically observed (objective lens ×10) and recorded using a CCD camera for microscopic observation.

[2] = Fluorescence spectrum (maximum fluorescence wavelength); format: physicochemical
Description: When the case where a mixed liquid of 2-NBDG and 2-TRLG was used as the mixed liquid of a D-glucose derivative that has a fluorescent chromophore in the molecule and is specifically incorporated into cells and an L-glucose derivative that has, in the molecule, a fluorescent chromophore that emits fluorescence at a wavelength different from that of the fluorescence emitted by the D-glucose derivative that has a fluorescent chromophore in the molecule and is specifically incorporated into cells is cited as an example, the maximum fluorescence wavelength of the former is from 540 nm to 550 nm, and the maximum fluorescence wavelength of the latter is from 600 nm to 610 nm. Therefore, when the fluorescence at a wavelength in the vicinity of each of the maximum fluorescence wavelengths is detected for the solution obtained by mixing both glucose derivatives, the green fluorescence emitted by 2-NBDG and the red fluorescence emitted by 2-TRLG can be detected, respectively, and as a result of combining the both fluorescence spectra detected, yellow fluorescence can be detected. After administration of the mixed liquid of 2-NBDG and 2-TRLG to cells, when 2-NBDG is specifically incorporated into the cells, green fluorescence is detected from the inside of the cells. […] Therefore, by detecting the green fluorescence emitted by 2-NBDG after the mixed liquid of 2-NBDG and 2-TRLG is administered to cells, the specific incorporation of D-glucose into cells relative to L-glucose can be accurately evaluated in real time.
Incidentally, the validity of this evaluation result is supported by the result that when the mixed solution of 20 μM 2-TRLG and 100 μM 2-NBDG is used, green fluorescence emitted by 2-NBDG can be detected by detecting fluorescence at around 540 nm, and red fluorescence emitted by 2-TRLG can be detected by detecting fluorescence at around 610 nm (in the case of pH 7.4, the maximum fluorescence wavelength of 2-NBDG is 540 nm, and the maximum fluorescence wavelength of 2-TRLG is 610 nm, see FIG. 4). […]

[3] = 2-NBDG, 2-TRLG and 2-NMALG mixed at 1:1:25 (molar ratio), excited by laser light at 405 nm (FIG. 6)

O=[N+]([O-])c1ccc(NC2C(O)OC(CO)[C@@H](O)C2O)c2nonc12 (stereo partly drawn) [2-NBDG, 2-[N-(7-nitrobenz-2-oxa-1,3-diazol-4-yl)amino]-2-deoxy-D-glucose]
green fluorescence from the cell (incorporation into the cell) [1]: green fluorescence from the cell was observed
fluorescence based on incorporation into the cell (acutely isolated neurons): only green fluorescence derived from 2-NBDG was observed
difference in fluorescence detection between 2-NBDG and 2-NBDLG (Escherichia coli K12): a difference in the result of the fluorescence detection for 2-NBDG and 2-NBDLG was not observed
fluorescence due to the incorporation into the cells (Escherichia coli K12): significant fluorescence due to the incorporation of 2-NBDG into the cells could be detected
maximum fluorescence wavelength [2, 3]: around 540 nm
maximum fluorescence wavelength ([2]; pH 7.4, mixed solution of 20 μM 2-TRLG and 100 μM 2-NBDG (FIG. 4)): 540 nm

O=[N+]([O-])c1ccc(NC2C(O)OC(CO)[C@H](O)C2O)c2nonc12 (stereo partly drawn) [2-NBDLG, 2-[N-(7-nitrobenz-2-oxa-1,3-diazol-4-yl)amino]-2-deoxy-L-glucose]
green fluorescence from the cell (incorporation into the cell) [1]: almost no green fluorescence from the cell was observed
difference in fluorescence detection between 2-NBDG and 2-NBDLG (Escherichia coli K12): a difference in the result of the fluorescence detection for 2-NBDG and 2-NBDLG was not observed
fluorescence due to the incorporation into the cells (Escherichia coli K12): could not be detected

CNc1ccccc1C(=O)N[C@H](C=O)[C@H](O)[C@@H](O)[C@@H](O)CO [2-NMALG, 2-[N-2-(N′-methylamino)benzoylamino]-2-deoxy-L-glucose]
maximum fluorescence wavelength [2, 3]: around 450 nm
